These are literature values, as cited in patent US8840883B2, “Metallo-protein and tocotrienol (MP-T3) compositions with non-protein-type metal chelator and uses thereof” (Naidu LP, priority 2007, dated 2014).

Molecules are shown by their SMILES.

For this series the following is noted: as low as 2% oxygen.

In the case of `CC(C)=CCC/C(C)=C/CC/C(C)=C/CC[C@]1(C)CCc2cc(O)c(C)c(C)c2O1` [gamma-T3], the degradation was 29%.

Take `Cc1c(O)cc2c(c1C)O[C@](C)(CCC[C@H](C)CCC[C@H](C)CCCC(C)C)CC2` [gamma-tocopherol]: the degradation is 20%.
